# Data: patent US20140024653A1, “COMPOSITIONS AND METHODS FOR TREATING CANCER USING PI3K INHIBITOR AND MEK INHIBITOR” (priority 2011, published 2014)
# Read-outs that look alike come from different tables or passages of the source.
# Legend:
# [1] = test system: human primary colon tumors CR-LRB-009C; assay: antitumor activity against subcutaneous CR-LRB-009C xenografts; format: in vivo
# Protocol: The human primary colon carcinoma CR-LRB-009C tumor model was established by implanting (SC) small tumor fragments and was maintained in SCID female mice using serial passages.
# (§1) Treatments were administered on measurable tumors. […] Mice were checked daily, and adverse clinical reactions noted.
# (§2) Animal body weights included the tumor weight.
# (§3) The primary efficacy end points are ΔT/ΔC, percent median regression, partial and complete regressions (PR and CR). Statistical analyses were performed on SAS system release 8.2 for SUN4 via Everstat V5 software and SAS 9.2 software. A probability less than 5% (p<0.05) was considered as significant.
# [2] = test system: human primary colon tumors CR-LRB-013P; assay: antitumor activity against subcutaneous CR-LRB-013P xenografts; format: in vivo
# Protocol: The human primary colon carcinoma CR-LRB-013P tumor model was established by implanting (SC) small tumor fragments and was maintained in SCID female mice using serial passages.
# as §1, §2, §3
# [3] = chemical stability of dosing stock solution; format: physicochemical; details: in the dark at 4° C.
# Protocol: Compound (2a) formulation was prepared in water for injection. The stock solution was chemically stable 7 days in the dark at 4° C. […] The pH of the final solution was 3. […]
# [4] = test system: PC-3, U87-MG, A2058, WM-266-4 and MCF7 xenografts; details: oral administration alone; PTEN-deficient PC-3, U87-MG, A2058, WM-266-4 or PIK3CA mutated MCF7 xenografts; cited from earlier work
# [5] = test system: human colon carcinoma HCT 116; assay: HCT116 tumor growth in fluorescence molecular tomography study; format: in vivo, SCID mice; details: (2a) 50 mg/kg oral daily day 11 to day 17; p=0.023
# [6] = test system: human colon carcinoma HCT 116
# Protocol: Mice were over 18 g at start of treatment after an acclimatization time of at least 5 days. […] The mice were housed on a 12 hours light/dark cycle.
# Human colon carcinoma HCT 116 cells were purchased at American Type Culture Collection [(ATCC), Rockville, Md., USA). The HCT 116 cells were cultured in Dulbecco's modified Eagle's medium (DMEM) (Invitrogen).
# The animals required to begin a given experiment were pooled and implanted monolaterally on day 0. Treatments were administered on measurable tumors. The solid tumors were allowed to grow to the desired volume range (animals with tumors not in the desired range were excluded). The mice were then pooled and unselectively distributed to the various treatment and control groups. […] The dosages are expressed in mg/kg, based on the body weight at start of therapy. Mice were checked daily, and adverse clinical reactions noted. Each group of mice was weighed as a whole daily until the weight nadir was reached. Then, groups were weighed once to thrice weekly until the end of the experiment. Tumors were measured with a caliper 2 to 3 times weekly until final sacrifice for sampling time, tumor reached 2000 mm^3 or until the animal died (whichever comes first). Solid tumor volumes were estimated from two-dimensional tumor measurements and calculated according to the following equation:
# Changes in tumor volume for each treated (T) and control (C) group were calculated for each tumor by subtracting the tumor volume on the day of first treatment (staging day) from the tumor volume on the specified observation day. The median ΔT is calculated for the treated group, and the median ΔC is calculated for the control group. Then the ratio ΔT/ΔC is calculated and expressed as a percentage. The dose is considered as therapeutically active when ΔT/ΔC is lower than 40% and very active when ΔT/ΔC is lower than 10%.
# The percent of tumor regression is defined as the % of tumor volume decrease in the treated group at a specified observation day compared to its volume on the first day of treatment. At a specific time point and for each animal, % regression is calculated. The median % regression is then calculated for the group using the following equation:
# Partial regression: Regressions are defined as partial if the tumor volume decreases to 50% of the tumor volume at the start of treatment.
# Complete regression: The CR is achieved when tumor volume=0 mm^3 (CR is considered when tumor volume cannot be recorded).
# [7] = test system: human pancreatic MiaPaCa-2; assay: antitumor activity against subcutaneous MiaPaCa-2 xenografts; format: in vivo, nude mice; details: XL-147 50 mg/kg po QD, 21 days; 50 mg/kg
# Protocol: The human pancreatic cancer cell line MiaPaCa-2 (American Type Culture Collection, Manassas Va.), was cultured in MEM medium containing 10% fetal bovine serum, 1% essential amino acid, 1% sodium pyruvate (Life Technologies, Carlsbad, Calif.). […] Cells were re-suspended in PBS (Life Technologies, Carlsbad, Calif.) and then mixed 1:1 with Matrigel (BD Biosciences, San Jose, Calif.). Cells were stored at 4° C. until implantation. MiaPaCa-2 cells (10×10^6 in a 200 μl PBS:Matrigel (1:1) suspension) were subcutaneously injected into the right flank area of female nude (Crl:NU-Foxn1nu) mice (6-8 weeks old, Charles River Laboratories, Wilmington, Mass.). All mice in this study were used according to the guidelines approved by the EMD-Serono Institutional Care and Animal Use Committee (IACUC), #07-003. Developing tumors located in the right flank area of female nude mice were measured over time with digital calipers. […] The remaining tumor-bearing mice were randomized into seven experimental groups (n=9), so that each group had the same mean tumor volume. […] The treatments began on the seventh day following implantation of the Miapaca-2 cells, which was designated as Day 0 for data evaluation purposes. […] Body weights and tumor volumes were assessed twice per week post treatment initiation. […] Efficacy was determined by analyzing tumor volumes and the percent ΔT/ΔC (% ΔT/ΔC). Tumor volume was determined by using the tumor length (1) and width (w) measurements and calculating the volume with the equation 1*w^2/2. The length was measured along the longest axis of the tumor and width was measured perpendicular to that length. The mean percent of actual tumor growth inhibited by the treatments was calculated as follows: [% ΔT/ΔC=(([…]))×100%], where TV=tumor volume, f=final, i=initial and Ctrl=control group. Tolerability was assessed by regarding percent body weight difference during the treatment period. Percent body weight difference was calculated as follows: [% Body weight difference=(BWc-BWi)/BWi×100%], where BW=body weight, c=current, i=initial.
# [8] = test system: HCT116 tumor vascular permeability; assay: tumor vascular permeability, Evans Blue extravasation / Dextran-Fitc; format: in vivo, SCID mice; details: (2a) 50 mg/kg oral daily day 11 to day 13
# Protocol: HCT116 tumor cells were implanted subcutaneously in the intra-scapular region in SCID mice. […] Each agent was given by oral route on a daily schedule. Tumor growth was monitored throughout the experiment by callipering the tumors. To quantify tumor vascular permeability, tumors were excised under ketamine/Xylazine (120/6 mg/kg ip) anesthesia at day 13, 4 hours post last treatment, 30 min after 0.5% Evans Blue iv injection, and 2 min post Dextran-Fitc 100 mg/kg iv injection. Tumors were then snap frozen, and 25 μm sections obtained for fluorescence quantification. Tumors sections were imaged with Icyte at 488 nm for vascular Dextran-Fitc determination and at 633 nm for Evans-Blue extravasation determination. Respective fluorescence were quantified as the sum of integral phantoms of fluorescence intensity and expressed as the mean ratio of Evans-Blue signal/Dextran-Fitc Signal.
# [9] = (2a) 75 mg/kg PO daily days 11-21
# [10] = as single agents or used in combination
# [11] = (2a) 75 mg/kg PO daily days 33-50
# [12] = study 1, (2a) 50 mg/kg PO daily days 11-18
# [13] = study 1, (2a) 75 mg/kg PO daily days 11-18
# [14] = study 2, (2a) 50 mg/kg PO daily days 11-18
# [15] = study 2, (2a) 75 mg/kg PO daily days 11-18
# [16] = study 3, (2a) 50 mg/kg PO daily days 11-20
# [17] = study 3, (2a) 75 mg/kg PO daily days 11-20
compound,measurement,setting,value
"COc1ccc(Cl)c(Nc2nc3ccccc3nc2NS(=O)(=O)c2cccc(NC(=O)C(C)(C)N)c2)c1 [Compound (2a), N-(3-{[(3-{[2-chloro-5-(methoxy)phenyl]amino}quinoxalin-2-yl)amino]sulfonyl}phenyl)-2-methylalaninamide]",Average body weight change in % per mouse at nadir,[1]; [9],−15.8 (21) %
same,Drug death,[1]; [9],0/7
same,Median ΔT/ΔC in % day 21,[1]; [9],39%
same,Regressions Complete,[1]; [9],0/7
same,Regressions Partial,[1]; [9],0/7
same,tolerability,[1]; [10],"tolerated, inducing some BWL but not reaching toxicity"
same,Average body weight change in % per mouse at nadir,[2]; [11],−9.2 (50) %
same,Drug death,[2]; [11],0/7
same,Median ΔT/ΔC in % day 50,[2]; [11],53%
same,Regressions Complete,[2]; [11],0/7
same,Regressions Partial,[2]; [11],0/7
same,tolerability,[2]; [10],"tolerated, inducing some BWL but not reaching toxicity"
same,stock solution chemically stable,"[3]; in 1N HCl and water for injection, pH 3",7 days
same,stock solution chemically stable,[3]; in water for injection,7 days
same,tumor growth,[4],inhibits tumor growth
same,ΔT/ΔC at the end of study,[5],36%
same,Average body weight change in % per mouse at nadir,[6]; [12],−5.8 (18) %
same,Drug death,[6]; [12],0/7
same,Median ΔT/ΔC in % day 18,[6]; [12],62%
same,Regressions Complete,[6]; [12],0/7
same,Regressions Partial,[6]; [12],0/7
same,Average body weight change in % per mouse at nadir,[6]; [13],−8.3 (18) %
same,Drug death,[6]; [13],0/7
same,Median ΔT/ΔC in % day 18,[6]; [13],80%
same,Regressions Complete,[6]; [13],0/7
same,Regressions Partial,[6]; [13],0/7
same,tolerability,"[6]; study 1, as single agents or used in combination","well-tolerated, inducing minimal BWL"
same,Average body weight change in % per mouse at nadir,[6]; [14],−7.7 (18) %
same,Drug death,[6]; [14],0/7
same,Median ΔT/ΔC in % day 18,[6]; [14],52%
same,Regressions Complete,[6]; [14],0/7
same,Regressions Partial,[6]; [14],0/7
same,Average body weight change in % per mouse at nadir,[6]; [15],−6.7 (18) %
same,Drug death,[6]; [15],0/7
same,Median ΔT/ΔC in % day 18,[6]; [15],56%
same,Regressions Complete,[6]; [15],0/7
same,Regressions Partial,[6]; [15],0/7
same,tolerability,"[6]; study 2, as single agents","well-tolerated, inducing minimal BWL"
same,Average body weight change in % per mouse at nadir,[6]; [16],−7.8 (19) %
same,Drug death,[6]; [16],0/10
same,Median ΔT/ΔC in % day 20,[6]; [16],66%
same,Regressions Complete,[6]; [16],0/10
same,Regressions Partial,[6]; [16],0/10
same,Average body weight change in % per mouse at nadir,[6]; [17],−8.5 (20) %
same,Drug death,[6]; [17],0/10
same,Median ΔT/ΔC in % day 20,[6]; [17],64%
same,Regressions Complete,[6]; [17],0/10
same,Regressions Partial,[6]; [17],0/10
same,tolerability,"[6]; study 3, as single agents","well-tolerated, inducing minimal BWL"
same,% ΔT/ΔC,[7],71.2%
same,decrease of the Evans-Blue/Dextran-Fitc ratio compared to control,[8],−8%
